Measured values published in patent US20250290117A1, “MOLECULAR PHENOTYPIC ANTIMICROBIAL SUSCEPTIBILITY TESTING” (priority 2024, published 2025).

Tests used:
Escherichia coli [1] = test: Traditional culture-based antimicrobial susceptibility test; assay type: cell-based
Description: Table 3 illustrates the results of an example antimicrobial agent susceptibility test of the current application versus a traditional culture-based antimicrobial agent susceptibility test for multiple Escherichia coli isolates, in accordance with one or more embodiments of the disclosure. These specimens underwent extraction or DNA purification prior to PCR. As in Tables 1 and 2, the results of the test of the current application are similar to the results from the traditional test. […]
Table 8 illustrates the results of an example antimicrobial agent susceptibility test of the current application versus a traditional culture-based antimicrobial agent susceptibility test for a low level positive with <10,000 cells/mL in the original specimen. These specimens were tested with direct PCR (e.g., no extraction DNA purification step prior to PCR) after 16 hours of incubation. As in Tables 1, 2, 3, 5, and 7, the results of the test are similar to the traditional test. […]

Escherichia coli [2] = test: Molecular phenotypic antimicrobial susceptibility test (extraction or DNA purification prior to PCR); assay type: cell-based
Description: (§1) Detection of Molecular Phenotypic Antimicrobial Susceptibility. Disclosed herein are the methods for the detection of phenotypic antimicrobial susceptibility via molecular methods. The present invention describes how a specimen 100 with a known microbial load is incubated and then exposed to a panel of antimicrobial agents to determine sensitivity (prevention of growth) or resistance (allowance of growth) to the specific antimicrobial agents tested utilizing molecular methods.
Sample Collection. Specimens 100 are collected from patients using sterile collection processes that are employed in routine clinical care. Specimens are transported to the testing facility in boric acid preservative.
Preparation of the Specimens for Testing. […] The process for pathogen isolation includes steps of harvesting the pathogen (e.g., via centrifugation), isolating pathogen DNA via a DNA isolation and/or purification kit, and performing PCR on the pathogen DNA via PCR components (e.g., primers, enzymes, buffers) as would be known to the skilled artisan. […] This aliquot is used for antimicrobial susceptibility testing if indicated based on the pathogen detection results. […] Specimens 100 with lower pathogen loads could also be utilized in the antibiotic susceptibility phase of testing with or without a longer incubation period.
(§2) Preparation of Antimicrobial Susceptibility Testing Plates. Antimicrobial solutions are prepared at known concentrations. The specific antimicrobials and their concentrations are selected based on the pathogen of interest and the described antimicrobial resistance breakpoints for that specimen pathogen and antimicrobial combination. These antimicrobials have been selected based on those commonly utilized by healthcare providers in routine clinical care for the specific type of suspected infection. The number and types of antimicrobials utilized can be customized based on the infection source, pathogen detected, patient-specific factors such as allergies or other health conditions (e.g., chronic kidney disease or concurrent medication use), or healthcare provider preferences such as antimicrobial availability or cost.
The antimicrobial solutions are prepared in liquid culture media (such as Muller Hinton Broth) to achieve the desired antimicrobial concentration and are then stored at −80° C. until use. For a given specimen, each antimicrobial is tested at a single or multiple antimicrobial concentration(s) which is its established breakpoints for sensitivity. The antimicrobial solutions are prepared and plated out for each specific pathogen. […] This allows for evaluation of pathogen load when no antimicrobial is present.
Specimen Exposure to Antimicrobial Agents. The 1 mL aliquot of the specimen 100 previously mixed with culture media and incubated is obtained. Using optical density measurements as a guide, the specimen 100 is diluted to 0.5 McFarland.
Antimicrobial exposure plates are typically placed into an incubator for 12-16 hours.
Nucleic Acid Amplification of Antimicrobial Agent Exposed Pathogens. The antimicrobial exposure plate is removed after the period of incubation. The specimen then undergoes a purification or lysis step. For example, the specimen may undergo a purification step (e.g., magnetic bead-based or other separation protocol to isolate genetic material). In another example, the specimen may undergo a cell lysis step. For example, buffer (e.g., lysis buffer) may be added and incubated in the thermal cycler for preparation for direct PCR. Next, the specimen may undergo a polymerase chain reaction (PCR) testing protocol, whereby a semi-quantitative PCR method is utilized. This may be completed either with or without a specific extraction protocol step. The pathogens can be individually targeted and detected, or a universal genetic sequence can be utilized to detect the antimicrobial susceptibility of the specimen as a whole.

M. morganii = test: Molecular phenotypic antimicrobial susceptibility test, specimen with two detected pathogens incubated together without isolation; assay type: cell-based, Morganella morganii; conditions: M. morganii in specimen with two detected pathogens (E. coli and M. morganii) incubated together; for Ct of Sensitive Breakpoint: Ct of controls (average) 19.99; for Molecular Antimicrobial Susceptibility Result: at sensitive breakpoint
Description: as §1
Sample Collection. Specimens 100 are collected from patients using sterile collection processes that are employed in routine clinical care. Specimens are transported to the testing facility in boric acid preservative. Specimens 100 are subsequently divided into a first sample 104 and a second sample 108.
Preparation of the Specimens for Testing. The specimens 100 are put through a pathogen identification process using PCR technology (e.g., using the first sample 104). The process for pathogen isolation includes steps of harvesting the pathogen (e.g., via centrifugation), isolating pathogen DNA via a DNA isolation and/or purification kit, and performing PCR on the pathogen DNA via PCR components (e.g., primers, enzymes, buffers) as would be known to the skilled artisan. Simultaneously, an additional aliquot of the same specimen (e.g., the second sample 108) is placed with liquid culture media and incubated for 4-6 hours. This aliquot is used for antimicrobial susceptibility testing if indicated based on the pathogen detection results. After pathogen identification is completed and if more than 10,000 cells/mL of bacteria (e.g., eligible bacteria) are detected in the source specimen, the second sample 108 then enters the antimicrobial susceptibility phase of testing. Specimens 100 with lower pathogen loads could also be utilized in the antibiotic susceptibility phase of testing with or without a longer incubation period.
as §2
The antimicrobial solutions are prepared in liquid culture media (such as Muller Hinton Broth) to achieve the desired antimicrobial concentration and are then stored at −80° C. until use. For a given specimen, each antimicrobial is tested at a single or multiple antimicrobial concentration(s) which is its established breakpoints for sensitivity. The antimicrobial solutions are prepared and plated out for each specific pathogen. This allows ease of use on the day of testing after defrosting the plate 112. Table 1, which illustrates the results of molecular phenotypic antimicrobial susceptibility testing when more than one organism is present in the source specimen, provides an example of an antimicrobial plate 112 prepared for this purpose. Of note, control wells containing only culture media are present on all plates 112. This allows for evaluation of pathogen load when no antimicrobial is present.
Specimen Exposure to Antimicrobial Agents. The 1 mL aliquot of the specimen 100 previously mixed with culture media and incubated is obtained. Using optical density measurements as a guide, the specimen 100 is diluted to 0.5 McFarland. […]

[3] = E. coli #1 - WDCM 00090 - 6.2×E3
[4] = E. coli #2 - WDCM 00090 - 6.2×E3
[5] = E. coli isolate 4, at sensitive breakpoint
[6] = E. coli isolate 5, Ct at control (average) 21.0933
[7] = E. coli isolate 5, at sensitive breakpoint
[8] = E. coli isolate 1, Ct at control (average) 21.238
[9] = E. coli isolate 1, at sensitive breakpoint
[10] = E. coli isolate 2, Ct at control (average) 21.270
[11] = E. coli isolate 2, at sensitive breakpoint
[12] = E. coli isolate 3, Ct at control (average) 22.0995
[13] = E. coli isolate 3, at sensitive breakpoint

Row | Compound | Traditional Culture Results (Escherichia coli [1]; [3]) | Traditional Culture Results (Escherichia coli [1]; [4]) | Traditional Culture Result (Escherichia coli [1]; E. coli isolate 4 (Table 3)) | Traditional Culture Result (Escherichia coli [1]; E. coli isolate 5 (Table 3)) | Traditional Culture Result (Escherichia coli [1]; E. coli isolate JJ1887) | Molecular Antimicrobial Susceptibility Result (Escherichia coli [2]; [5]) | Ct at Sensitive Breakpoint (Escherichia coli [2]; [6]) | Molecular Antimicrobial Susceptibility Result (Escherichia coli [2]; [7]) | Ct of Sensitive Breakpoint (M. morganii) | Molecular Antimicrobial Susceptibility Result (M. morganii) | Traditional Culture Result (Escherichia coli [1]; E. coli isolate 1 (Table 3)) | Traditional Culture Result (Escherichia coli [1]; E. coli isolate 2 (Table 3)) | Traditional Culture Result (Escherichia coli [1]; E. coli isolate 3 (Table 3)) | Ct at Sensitive Breakpoint (Escherichia coli [2]; [8]) | Molecular Antimicrobial Susceptibility Result (Escherichia coli [2]; [9]) | Ct at Sensitive Breakpoint (Escherichia coli [2]; [10]) | Molecular Antimicrobial Susceptibility Result (Escherichia coli [2]; [11]) | Ct at Sensitive Breakpoint (Escherichia coli [2]; [12]) | Molecular Antimicrobial Susceptibility Result (Escherichia coli [2]; [13]) | Ct at Sensitive Breakpoint (Escherichia coli [2]; E. coli isolate 4, Ct at control (average) 17.5733)
1 | CC1(C)S[C@@H]2[C@H](NC(=O)[C@H](N)c3ccccc3)C(=O)N2[C@H]1C(=O)O [Ampicillin] | Sensitive | Sensitive | Resistant | Sensitive | Resistant | Resistant | 24.64 | Sensitive (Antimicrobial wells with pathogen load detected below the control wells (typically >2 cycle thresholds later) may be reported as Sensitive) | 20.73 | Resistant |  |  |  |  |  |  |  |  |  | 
2 | Cc1nnc(SCC2=C(C(=O)O)N3C(=O)[C@@H](NC(=O)Cn4cnnn4)[C@H]3SC2)s1 [Cefazolin] | Sensitive | Sensitive | Resistant | Sensitive | Resistant | Resistant | 25.36 | Sensitive (Antimicrobial wells with pathogen load detected below the control wells (typically >2 cycle thresholds later) may be reported as Sensitive) | 21.60 | Resistant | Resistant | Resistant | Resistant | 20.925 | Resistant | 19.313 | Resistant | 20.834 | Resistant | 17.23
3 | C[C@@H](O)[C@H]1C(=O)N2C(C(=O)O)=C(S[C@@H]3CN[C@H](C(=O)N(C)C)C3)[C@H](C)[C@H]12 [Meropenem] |  |  |  |  | Sensitive |  |  |  | 29.99 | Sensitive (Antimicrobial wells with pathogen load detected below the control wells (typically >2 cycle thresholds later) may be reported as Sensitive) | Sensitive | Sensitive | Sensitive | 33.626 | Sensitive (Antimicrobial wells with pathogen load detected below the control wells (typically >2 cycle thresholds later) may be reported as Sensitive) | 29.525 | Sensitive (Antimicrobial wells with pathogen load detected below the control wells (typically >2 cycle thresholds later) may be reported as Sensitive) | 23.588 | Sensitive (Antimicrobial wells with pathogen load detected below the control wells (typically >2 cycle thresholds later) may be reported as Sensitive) | 
4 | Trimethoprim/Sulfamethoxazole [TMP/SMX] |  |  | Resistant | Sensitive | Resistant | Resistant | 29.12 | Sensitive (Antimicrobial wells with pathogen load detected below the control wells (typically >2 cycle thresholds later) may be reported as Sensitive) | 32.93 | Sensitive (Antimicrobial wells with pathogen load detected below the control wells (typically >2 cycle thresholds later) may be reported as Sensitive) | Sensitive | Sensitive | Sensitive | 32.294 | Sensitive (Antimicrobial wells with pathogen load detected below the control wells (typically >2 cycle thresholds later) may be reported as Sensitive) | 28.875 | Sensitive (Antimicrobial wells with pathogen load detected below the control wells (typically >2 cycle thresholds later) may be reported as Sensitive) | 30.605 | Sensitive (Antimicrobial wells with pathogen load detected below the control wells (typically >2 cycle thresholds later) may be reported as Sensitive) | 
